Data taken from US20210137966A1, “VIRUCIDAL COMPOUNDS AND USES THEREOF” (priority 2016, published 2021).

Assays:
LV-VSV-G = assay type: cell-based, VSV-G pseudotyped lentivirus
HSV-2 [1] = assay: Evaluation of virucidal activity against HSV-2; assay type: cell-based; details: HSV-2, virucidal assay (FIG. 1/2 bottom)
Procedure: (§1) Evaluation of Virucidal Activity Against HSV-2, HPV-16
(§2) Viral titers were calculated at dilutions at which the nanoparticle was not effective

HPV-16 = assay: Evaluation of virucidal activity against HPV-16; assay type: cell-based, human papillomavirus (HPV); details: FIG. 6
Procedure: as §1, §2

HSV-2 [2] = assay: Inhibition assay HSV-2 (dose response, plaque reduction in Vero cells); assay type: cell-based; details: HSV-2, dose response assay (FIG. 1/2 top)
Procedure: The effect of cyclodextrins (CDs) on HSV infection was evaluated by a plaque reduction assay. Vero cells were pre-plated 24 h in advance in 24-well plates at a density of 10^5 cells. Increasing concentrations of cyclodextrins were incubated with HSV-2 (multiplicity of infection (MOI) 0.0003 plaque forming units (pfu)/cell) at 37° C. for 1 hour and then the mixtures were added to the cells. Following virus adsorption (2 h at 37° C.), the virus inoculum was removed, the cells were washed with medium and then overlaid with a medium containing 1.2% methylcellulose. After 24 h (HSV-2) of incubation at 37° C., cells were fixed and stained with 0.1% of crystal violet in 20% ethanol and viral plaques were counted. The concentration producing 50% reduction in plaque formation (IC50) was determined using the Prism software by comparing drug-treated and untreated wells.

## O[C@@H]1[C@@H](O)[C@H]2O[C@H]3[C@H](O)[C@@H](O)[C@@H](O[C@H]4[C@H](O)[C@@H](O)[C@@H](O[C@H]5[C@H](O)[C@@H](O)[C@@H](O[C@H]6[C@H](O)[C@@H](O)[C@@H](O[C@H]7[C@H](O)[C@@H](O)[C@@H](O[C@H]8[C@H](O)[C@@H](O)[C@@H](O[C@@H]1[C@@H](CI)O2)O[C@@H]8CI)O[C@@H]7CI)O[C@@H]6CI)O[C@@H]5CI)O[C@@H]4CI)O[C@@H]3CI [CD1, Heptakis-6-iodo-6-deoxy-beta-cyclodextrin]
LV-VSV-G
  Virucidal assay, Dilutions: 1:10: 27.38
  Virucidal assay, Dilutions: Stock: 85.49

## O=S(=O)(O)CCCCCCCCCCCSCC1OC2OC3C(CSCCCCCCCCCCCS(=O)(=O)O)OC(OC4C(CSCCCCCCCCCCCS(=O)(=O)O)OC(OC5C(CSCCCCCCCCCCCS(=O)(=O)O)OC(OC6C(CSCCCCCCCCCCCS(=O)(=O)O)OC(OC7C(CSCCCCCCCCCCCS(=O)(=O)O)OC(OC8C(CSCCCCCCCCCCCS(=O)(=O)O)OC(OC1C(O)C2O)C(O)C8O)C(O)C7O)C(O)C6O)C(O)C5O)C(O)C4O)C(O)C3O (stereo not shown) [CD2]
LV-VSV-G
  Virucidal effect against Lenti virus: virucidal effect
HSV-2 [1]
  Virucidal effect against HSV-2 in virucidal assay: Virucidal effect observed
HPV-16
  Virucidal effect against human papillomavirus (HPV): virucidal effect

## beta-cyclodextrin sulfonate [reference compound]
HSV-2 [2]
  Inhibition of HSV-2 in dose response assay: Inhibition is observed at high concentrations
HSV-2 [1]
  Virucidal effect against HSV-2 in virucidal assay: no virucidal effect is observed
